According to ChEMBL document CHEMBL4304811, “Development of a Water-Soluble Indolylmaleimide Derivative IM-93 Showing Dual Inhibition of Ferroptosis and NETosis” (ACS Med Chem Lett, 2019):

Experiments:
[1] = test system: Fibroblast growth factor receptor 3 (Homo sapiens), P22607 [G697C]; assay: Binding affinity to human partial length FGFR3 G697C mutant (R442 to S771 residues) expressed in bacterial expression system assessed as residual binding level at 10 uM by Kinomescan method relative to control
[2] = target: Mitogen-activated protein kinase kinase kinase kinase 3 (Homo sapiens) (UniProt Q8IVH8); assay: Binding affinity to wild-type human partial length MAP4K3 (M1 to D301 residues) expressed in bacterial expression system assessed as residual binding level at 10 uM by Kinomescan method relative to control
[3] = target: Dual specificity tyrosine-phosphorylation-regulated kinase 1A (Homo sapiens) (UniProt Q13627); assay: Binding affinity to wild-type human partial length DYRK1A (H129 to S509 residues) expressed in mammalian expression system assessed as residual binding level at 10 uM by Kinomescan method relative to control
NIH3T3 = assay: Inhibition of erastin-induced ferroptosis in mouse NIH/3T3 cells after 24 hrs by WST-8 assay; type: functional, cell-based; details: NIH3T3, 24 h
[4] = target: Serine/threonine-protein kinase Nek9 (Homo sapiens) (UniProt Q8TD19); assay: Binding affinity to wild-type human partial length NEK9 (P32 to R328 residues) expressed in bacterial expression system assessed as residual binding level at 10 uM by Kinomescan method relative to control
[5] = test system: Tyrosine-protein kinase ABL1 (Homo sapiens), P00519 [T315I]; assay: Binding affinity to human phosphorylated ABL1 T315I mutant (S229 to K512 residues) expressed in mammalian expression system assessed as residual binding level at 10 uM by Kinomescan method relative to control
[6] = target: Dual specificity mitogen-activated protein kinase kinase 3 (Homo sapiens) (UniProt P46734); assay: Binding affinity to wild-type human full length MEK3 (M1 to S318 residues) expressed in mammalian expression system assessed as residual binding level at 10 uM by Kinomescan method relative to control
[7] = target: Receptor tyrosine-protein kinase erbB-3 (Homo sapiens) (UniProt P21860); assay: Binding affinity to wild-type human partial length ERBB3 (G684 to A987 residues) expressed in mammalian expression system assessed as residual binding level at 10 uM by Kinomescan method relative to control
[8] = target: Mitogen-activated protein kinase kinase kinase 6 (Homo sapiens) (UniProt O95382); assay: Binding affinity to wild-type human partial length ASK2 (M278 to R972 residues) expressed in mammalian expression system assessed as residual binding level at 10 uM by Kinomescan method relative to control
[9] = target: Membrane-associated tyrosine- and threonine-specific cdc2-inhibitory kinase (Homo sapiens) (UniProt Q99640); assay: Binding affinity to wild-type human partial length PKMYT1 (A88 to G366 residues) expressed in bacterial expression system assessed as residual binding level at 10 uM by Kinomescan method relative to control
[10] = test system: Tyrosine-protein kinase ABL1 (Homo sapiens), P00519 [F317I]; assay: Binding affinity to human non-phosphorylated ABL1 F317I mutant (S229 to K512 residues) expressed in mammalian expression system assessed as residual binding level at 10 uM by Kinomescan method relative to control
[11] = target: Cyclin-dependent kinase-like 3 (Homo sapiens) (UniProt Q8IVW4); assay: Binding affinity to wild-type human partial length CDKL3 (M1 to D327 residues) expressed in bacterial expression system assessed as residual binding level at 10 uM by Kinomescan method relative to control
[12] = target: Dual specificity testis-specific protein kinase 1 (Homo sapiens) (UniProt Q15569); assay: Binding affinity to wild-type human full length TESK1 (R37 to S626 residues) expressed in bacterial expression system assessed as residual binding level at 10 uM by Kinomescan method relative to control
[13] = target: Cyclin-dependent kinase 18 (Homo sapiens) (UniProt Q07002); assay: Binding affinity to wild-type human full length PCTK3 (M3 to F474 residues) expressed in bacterial expression system assessed as residual binding level at 10 uM by Kinomescan method relative to control
[14] = target: Phosphatidylinositol 4,5-bisphosphate 3-kinase catalytic subunit delta isoform (Homo sapiens) (UniProt O00329); assay: Binding affinity to wild-type human partial length PIK3CD (R108 to Q1044 residues) expressed in mammalian expression system assessed as residual binding level at 10 uM by Kinomescan method relative to control
[15] = target: Phosphorylase b kinase gamma catalytic chain, skeletal muscle/heart isoform (Homo sapiens) (UniProt Q16816); assay: Binding affinity to wild-type human full length PHKG1 (M1 to Y387 residues) expressed in bacterial expression system assessed as residual binding level at 10 uM by Kinomescan method relative to control
[16] = target: Serine/threonine-protein kinase PAK 3 (Homo sapiens) (UniProt O75914); assay: Binding affinity to wild-type human full length PAK3 (M1 to R544 residues) expressed in bacterial expression system assessed as residual binding level at 10 uM by Kinomescan method relative to control
[17] = target: Dual specificity mitogen-activated protein kinase kinase 4 (Homo sapiens) (UniProt P45985); assay: Binding affinity to wild-type human partial length MEK4 (S84 to D399 residues) expressed in mammalian expression system assessed as residual binding level at 10 uM by Kinomescan method relative to control
[18] = test system: Tyrosine-protein kinase ABL1 (Homo sapiens), P00519 [F317I]; assay: Binding affinity to human phosphorylated ABL1 F317I mutant (S229 to K512 residues) expressed in mammalian expression system assessed as residual binding level at 10 uM by Kinomescan method relative to control
[19] = target: 3-phosphoinositide-dependent protein kinase 1 (Homo sapiens) (UniProt O15530); assay: Binding affinity to wild-type human full length PDPK1 (M1 to Q556 residues) expressed in bacterial expression system assessed as residual binding level at 10 uM by Kinomescan method relative to control
[20] = target: Serine/threonine-protein kinase 32A (Homo sapiens) (UniProt Q8WU08); assay: Binding affinity to wild-type human full length YANK1 (M1 to L396 residues) expressed in mammalian expression system assessed as residual binding level at 10 uM by Kinomescan method relative to control
[21] = test system: Tyrosine-protein kinase ABL1 (Homo sapiens), P00519 [H396P]; assay: Binding affinity to human non-phosphorylated ABL1 H396P mutant (S229 to K512 residues) expressed in mammalian expression system assessed as residual binding level at 10 uM by Kinomescan method relative to control
[22] = target: Dual specificity protein kinase CLK2 (Homo sapiens) (UniProt P49760); assay: Binding affinity to wild-type human partial length CLK2 (D144 to R498 residues) expressed in bacterial expression system assessed as residual binding level at 10 uM by Kinomescan method relative to control
[23] = target: Tyrosine-protein kinase TXK (Homo sapiens) (UniProt P42681); assay: Binding affinity to wild-type human partial length TXK (L238 to W527 residues) expressed in bacterial expression system assessed as residual binding level at 10 uM by Kinomescan method relative to control
[24] = target: Mast/stem cell growth factor receptor Kit (Homo sapiens) (UniProt P10721); assay: Binding affinity to wild-type human partial length autoinhibited KIT (Y545 to D952 residues) expressed in mammalian expression system assessed as residual binding level at 10 uM by Kinomescan method relative to control

Sequence of Phosphatidylinositol 4,5-bisphosphate 3-kinase catalytic subunit delta isoform (Homo sapiens) (O00329 whole entry, the tested form may be a part, canonical isoform): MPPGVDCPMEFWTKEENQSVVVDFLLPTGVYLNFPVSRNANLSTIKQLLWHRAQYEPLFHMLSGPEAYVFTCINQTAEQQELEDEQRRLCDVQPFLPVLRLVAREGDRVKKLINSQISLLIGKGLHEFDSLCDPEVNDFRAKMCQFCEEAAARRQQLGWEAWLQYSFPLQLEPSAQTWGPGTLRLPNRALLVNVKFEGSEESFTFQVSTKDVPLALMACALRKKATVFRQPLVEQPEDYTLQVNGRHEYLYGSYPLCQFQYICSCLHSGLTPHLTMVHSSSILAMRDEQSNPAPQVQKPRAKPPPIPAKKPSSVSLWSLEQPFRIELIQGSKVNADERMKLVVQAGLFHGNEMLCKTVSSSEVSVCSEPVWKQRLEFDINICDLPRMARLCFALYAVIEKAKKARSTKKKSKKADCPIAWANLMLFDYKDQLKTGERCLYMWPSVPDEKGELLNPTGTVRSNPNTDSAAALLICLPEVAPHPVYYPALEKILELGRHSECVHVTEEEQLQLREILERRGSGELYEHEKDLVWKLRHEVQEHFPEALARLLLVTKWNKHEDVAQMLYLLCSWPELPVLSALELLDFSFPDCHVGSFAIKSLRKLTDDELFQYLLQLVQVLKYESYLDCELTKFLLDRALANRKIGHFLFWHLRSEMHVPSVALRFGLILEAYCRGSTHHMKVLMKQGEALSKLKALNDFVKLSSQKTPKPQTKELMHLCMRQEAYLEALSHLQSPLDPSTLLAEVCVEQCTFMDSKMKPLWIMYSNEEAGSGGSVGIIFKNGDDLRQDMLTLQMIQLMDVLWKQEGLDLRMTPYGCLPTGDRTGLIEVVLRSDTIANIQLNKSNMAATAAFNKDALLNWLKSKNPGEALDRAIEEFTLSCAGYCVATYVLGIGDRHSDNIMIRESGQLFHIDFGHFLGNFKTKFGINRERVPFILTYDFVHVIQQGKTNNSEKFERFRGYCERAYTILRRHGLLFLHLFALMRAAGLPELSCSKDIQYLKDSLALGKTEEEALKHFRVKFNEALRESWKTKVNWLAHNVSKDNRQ
Sequence of Fibroblast growth factor receptor 3 (Homo sapiens), P22607 [G697C] (P22607 whole entry G697C, the tested form may be a part): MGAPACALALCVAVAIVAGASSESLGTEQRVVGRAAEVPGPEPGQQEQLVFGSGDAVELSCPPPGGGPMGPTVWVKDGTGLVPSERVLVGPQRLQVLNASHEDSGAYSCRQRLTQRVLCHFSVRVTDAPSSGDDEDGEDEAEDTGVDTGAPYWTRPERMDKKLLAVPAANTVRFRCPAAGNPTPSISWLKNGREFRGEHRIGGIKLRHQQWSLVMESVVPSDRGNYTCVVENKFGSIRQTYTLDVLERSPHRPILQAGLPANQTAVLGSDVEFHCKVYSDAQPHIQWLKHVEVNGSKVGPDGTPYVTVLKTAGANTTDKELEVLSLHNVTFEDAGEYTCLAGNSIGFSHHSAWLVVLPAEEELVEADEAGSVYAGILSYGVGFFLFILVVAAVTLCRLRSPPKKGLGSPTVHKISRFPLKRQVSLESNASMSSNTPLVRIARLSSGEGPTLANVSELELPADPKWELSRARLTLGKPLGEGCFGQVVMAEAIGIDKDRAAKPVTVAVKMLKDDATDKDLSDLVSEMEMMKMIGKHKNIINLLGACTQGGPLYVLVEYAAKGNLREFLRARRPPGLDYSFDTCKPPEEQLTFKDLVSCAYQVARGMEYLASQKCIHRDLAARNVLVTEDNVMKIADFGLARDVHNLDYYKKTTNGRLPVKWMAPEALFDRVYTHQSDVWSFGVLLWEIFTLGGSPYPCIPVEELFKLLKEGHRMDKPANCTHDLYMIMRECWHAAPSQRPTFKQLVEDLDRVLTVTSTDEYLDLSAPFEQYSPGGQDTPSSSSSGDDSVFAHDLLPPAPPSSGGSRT
Sequence of Dual specificity protein kinase CLK2 (Homo sapiens) (P49760 whole entry, looked up, the tested form may be a part): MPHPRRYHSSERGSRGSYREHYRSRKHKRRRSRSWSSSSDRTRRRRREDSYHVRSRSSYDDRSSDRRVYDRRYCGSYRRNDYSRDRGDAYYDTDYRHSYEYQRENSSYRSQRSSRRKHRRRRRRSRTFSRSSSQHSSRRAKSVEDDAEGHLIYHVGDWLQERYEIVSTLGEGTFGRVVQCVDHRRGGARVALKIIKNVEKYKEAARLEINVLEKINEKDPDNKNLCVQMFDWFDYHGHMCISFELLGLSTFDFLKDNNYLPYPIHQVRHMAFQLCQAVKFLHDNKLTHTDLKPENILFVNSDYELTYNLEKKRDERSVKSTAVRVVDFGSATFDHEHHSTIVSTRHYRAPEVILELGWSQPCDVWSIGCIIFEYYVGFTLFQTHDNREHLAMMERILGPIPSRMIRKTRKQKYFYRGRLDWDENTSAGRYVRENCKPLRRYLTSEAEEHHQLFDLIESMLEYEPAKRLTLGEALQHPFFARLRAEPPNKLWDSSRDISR
Sequence of Dual specificity testis-specific protein kinase 1 (Homo sapiens) (Q15569 whole entry, looked up, the tested form may be a part): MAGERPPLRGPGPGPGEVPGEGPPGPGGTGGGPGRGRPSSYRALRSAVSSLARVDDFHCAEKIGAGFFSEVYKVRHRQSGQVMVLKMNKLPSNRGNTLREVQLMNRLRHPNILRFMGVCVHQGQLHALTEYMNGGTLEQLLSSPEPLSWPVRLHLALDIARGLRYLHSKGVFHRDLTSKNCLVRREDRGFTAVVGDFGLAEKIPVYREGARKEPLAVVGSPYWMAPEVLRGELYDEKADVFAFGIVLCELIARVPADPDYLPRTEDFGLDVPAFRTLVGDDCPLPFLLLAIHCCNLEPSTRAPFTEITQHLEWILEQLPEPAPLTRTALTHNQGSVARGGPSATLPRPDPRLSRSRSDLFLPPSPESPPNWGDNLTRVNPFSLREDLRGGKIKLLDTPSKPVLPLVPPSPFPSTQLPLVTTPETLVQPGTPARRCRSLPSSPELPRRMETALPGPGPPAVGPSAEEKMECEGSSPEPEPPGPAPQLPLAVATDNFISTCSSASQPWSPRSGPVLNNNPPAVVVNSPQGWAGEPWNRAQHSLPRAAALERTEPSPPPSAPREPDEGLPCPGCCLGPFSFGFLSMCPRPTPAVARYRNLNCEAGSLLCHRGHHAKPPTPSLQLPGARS
Sequence of Serine/threonine-protein kinase 32A (Homo sapiens) (Q8WU08 whole entry, the tested form may be a part): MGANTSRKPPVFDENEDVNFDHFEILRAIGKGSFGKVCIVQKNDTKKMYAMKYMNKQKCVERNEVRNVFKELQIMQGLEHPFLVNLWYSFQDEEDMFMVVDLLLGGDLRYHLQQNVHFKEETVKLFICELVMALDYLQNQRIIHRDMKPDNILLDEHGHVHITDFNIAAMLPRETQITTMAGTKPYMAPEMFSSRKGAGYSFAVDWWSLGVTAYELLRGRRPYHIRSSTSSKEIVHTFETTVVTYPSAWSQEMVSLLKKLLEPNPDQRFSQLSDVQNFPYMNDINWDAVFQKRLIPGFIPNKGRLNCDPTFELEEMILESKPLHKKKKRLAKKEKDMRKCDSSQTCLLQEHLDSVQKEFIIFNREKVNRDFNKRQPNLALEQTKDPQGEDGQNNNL
Sequence of Serine/threonine-protein kinase Nek9 (Homo sapiens) (Q8TD19 whole entry, the tested form may be a part): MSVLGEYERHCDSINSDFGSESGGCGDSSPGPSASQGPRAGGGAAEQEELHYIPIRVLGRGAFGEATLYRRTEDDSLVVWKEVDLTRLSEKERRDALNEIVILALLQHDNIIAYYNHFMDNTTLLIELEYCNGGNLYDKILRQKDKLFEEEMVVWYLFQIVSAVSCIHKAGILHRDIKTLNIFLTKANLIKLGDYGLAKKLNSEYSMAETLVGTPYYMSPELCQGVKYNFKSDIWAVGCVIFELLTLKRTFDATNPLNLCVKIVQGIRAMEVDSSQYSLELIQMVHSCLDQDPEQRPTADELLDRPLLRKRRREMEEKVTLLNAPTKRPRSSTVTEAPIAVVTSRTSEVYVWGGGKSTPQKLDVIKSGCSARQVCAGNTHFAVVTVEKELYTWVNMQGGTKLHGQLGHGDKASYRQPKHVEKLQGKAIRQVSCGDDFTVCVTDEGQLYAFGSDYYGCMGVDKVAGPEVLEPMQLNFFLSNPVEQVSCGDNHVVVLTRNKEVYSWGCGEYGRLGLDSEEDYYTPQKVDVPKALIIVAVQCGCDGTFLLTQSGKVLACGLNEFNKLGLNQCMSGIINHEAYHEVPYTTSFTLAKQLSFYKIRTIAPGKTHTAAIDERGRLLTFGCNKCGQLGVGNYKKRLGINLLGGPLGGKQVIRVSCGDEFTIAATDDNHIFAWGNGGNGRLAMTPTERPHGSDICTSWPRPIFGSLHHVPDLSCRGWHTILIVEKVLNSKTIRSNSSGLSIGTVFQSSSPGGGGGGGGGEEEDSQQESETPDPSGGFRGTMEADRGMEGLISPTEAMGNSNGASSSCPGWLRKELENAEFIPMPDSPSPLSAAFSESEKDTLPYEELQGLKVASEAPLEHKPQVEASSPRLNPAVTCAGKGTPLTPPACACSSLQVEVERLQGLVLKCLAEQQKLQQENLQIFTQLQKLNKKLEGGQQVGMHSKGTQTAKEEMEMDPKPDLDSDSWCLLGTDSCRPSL
Sequence of 3-phosphoinositide-dependent protein kinase 1 (Homo sapiens) (O15530 whole entry, the tested form may be a part): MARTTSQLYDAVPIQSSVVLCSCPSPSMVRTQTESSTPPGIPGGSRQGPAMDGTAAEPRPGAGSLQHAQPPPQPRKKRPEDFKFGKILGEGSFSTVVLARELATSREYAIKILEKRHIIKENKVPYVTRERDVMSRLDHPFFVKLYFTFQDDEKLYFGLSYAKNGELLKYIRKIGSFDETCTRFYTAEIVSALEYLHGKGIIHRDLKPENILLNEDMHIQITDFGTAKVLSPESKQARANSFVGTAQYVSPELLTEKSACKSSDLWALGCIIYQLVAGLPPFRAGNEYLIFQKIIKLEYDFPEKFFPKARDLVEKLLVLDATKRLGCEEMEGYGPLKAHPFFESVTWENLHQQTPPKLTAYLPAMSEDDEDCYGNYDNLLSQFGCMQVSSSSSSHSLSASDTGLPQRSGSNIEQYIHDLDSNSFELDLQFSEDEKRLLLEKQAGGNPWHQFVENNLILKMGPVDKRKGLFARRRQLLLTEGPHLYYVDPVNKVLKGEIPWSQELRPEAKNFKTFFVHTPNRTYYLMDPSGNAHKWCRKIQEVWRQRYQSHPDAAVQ

CC(C)N1C(=O)C(NCCCN(C)C)=C(c2cn(C)c3ccccc23)C1=O.Cl showed an Activity [1] of 79%, an Activity [2] of 96% and an Activity [3] of 87%. For the same compound, the IC50 (NIH3T3) was 1900 nM, the Activity [4] was 100% and the Activity [5] was 90%. The Activity [6] was 97%, the Activity [7] was 93% and the Activity [8] was 98%. It also gave an Activity [9] of 88%, an Activity [10] of 88% and an Activity [11] of 100%. For the same compound, the Activity [12] was 82%, the Activity [13] was 99% and the Activity [14] was 78%. For the same compound, the Activity [15] was 94%, the Activity [16] was 100% and the Activity [17] was 100%. It also gave an Activity [18] of 87%, an Activity [19] of 89% and an Activity [20] of 67%. The Activity [21] was 90%, the Activity [22] was 90% and the Activity [23] was 88%. For the same compound, the Activity [24] was 66%.
